Data on 64 molecules can be found in PMC7539012, “Hyperphosphorylated tau aggregation and cytotoxicity modulators screen identified prescription drugs linked to Alzheimer's disease and cognitive functions” (Scientific Reports, 2020).

Structures can show the parent of a compound that is named as a salt.

One test relates to T1, 1N4R p-tau.
T1 construct: made in house; host or cells: E. coli (PIMAX system)
The test is described as follows: p-tau aggregation modulator screen of 1280-compound library (ThS fluorescence net change over 16 h).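 For ThS net change: 30 µM compound with 6 µM p-tau over 16 h.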 The format is biochemical. Set-up: key to PTAI>2SD: *: PTAI>2SD; key to PTAI>3SD: *: PTAI>3SD.
Conditions: not given
With `CN(C)CCCN1c2ccccc2CCc2ccc(Cl)cc21` [Clomipramine hydrochloride], the ThS net change came out at 307. Same read-out and setting: the same measure for `Cc1c(Cl)cccc1Nc1ncccc1C(=O)O.NCCCC[C@H](N)C(=O)O` [Clonixin Lysinate]: 462.

As to `C[C@@H]1C[C@@H]([C@H](O)CC2CC(=O)NC(=O)C2)C(=O)[C@@H](C)C1` [Cycloheximide], the ThS net change was 442. `O=P1(N(CCCl)CCCl)NCCCO1` (stereo not drawn) [Cyclophosphamide] displayed a ThS net change of 440. Still for that read-out and setting: the same measure for `COc1cccc2c1C(=O)c1c(O)c3c(c(O)c1C2=O)C[C@@](O)(C(C)=O)C[C@@H]3O[C@H]1C[C@H](N)[C@H](O)[C@H](C)O1` [Daunorubicin hydrochloride]: 235; for `CC(=O)N(O)CCCCCNC(=O)CCC(=O)N(O)CCCCCNC(=O)CCC(=O)N(O)CCCCCN` [Deferoxamine mesylate]: 439. Same read-out and setting: the same measure for `CC(=O)O[C@H]1CC[C@@]2(C)C(=CC[C@@H]3[C@@H]2CC[C@]2(C)C(=O)CC[C@@H]32)C1` [Dehydroisoandosterone 3-acetate]: 423; for `CC[N+](CC)(CC(=O)Nc1c(C)cccc1C)Cc1ccccc1` [Denatonium benzoate]: 448; for `Clc1ccc2c(c1)CCc1cccnc1C2=C1CCNCC1` [Desloratadine]: 457.

Still in this test, the particulars now being: 1280-compound library screen; ThS fluorescence net change over 16 h.
Regarding `CCC(=O)O[C@]1(C(=O)CCl)[C@@H](C)C[C@H]2[C@@H]3CCC4=CC(=O)C=C[C@]4(C)[C@@]3(F)[C@@H](O)C[C@@]21C` [Clobetasol propionate], the ThS net change is listed as 409. `Cl.Clc1ccc(C(OCCN2CCCCC2)c2ccccc2)cc1` (stereo not drawn) [Cloperastine hydrochloride] had a ThS net change of 386.

As for `C#CCN(C)CCCOc1ccc(Cl)cc1Cl` [Clorgyline hydrochloride], the ThS net change was 400.

`Nc1cc(C(Cl)=C(Cl)Cl)c(S(N)(=O)=O)cc1S(N)(=O)=O` [Clorsulon] returned a ThS net change of 393. The same measure, in the same setting: the same measure for `Clc1ccccc1C(c1ccccc1)(c1ccccc1)n1ccnc1` [Clotrimazole]: 396; for `Cc1onc(-c2ccccc2Cl)c1C(=O)N[C@@H]1C(=O)N2[C@@H]1SC(C)(C)[C@@H]2C(=O)[O-].[Na+]` [Cloxacillin sodium salt]: 380. Molecule `C[C@]12CCC(=O)C=C1CC[C@@H]1[C@@H]2C(=O)C[C@@]2(C)[C@H]1CC[C@]2(O)C(=O)CO` [Cortisone] registered a ThS net change of 403. `CN(C)CCOC(=O)C(c1ccccc1)C1(O)CCCC1` (stereo not drawn) [Cyclopentolate hydrochloride] yielded a ThS net change of 412. Take `Nc1ccn([C@@H]2O[C@H](CO)[C@@H](O)[C@@H]2O)c(=O)n1` [Cytarabine]: the ThS net change stood at 392. As to `N[C@@H]1CON=C1O` [D-cycloserine], the ThS net change came out at 405. On the same count and under the same terms, the same measure for `CN(C)/N=N/c1[nH]cnc1C(N)=O` [Dacarbazine]: 392; for `Nc1ccc(S(=O)(=O)c2ccc(N)cc2)cc1` [Dapsone]: 382. With `C[N+](C)(C)CCCCCCCCCC[N+](C)(C)C` [Decamethonium bromide], the ThS net change is on record as 390.

Staying with this test, now noted: 1280-compound library screen; […].
`CCN(CC)CCOc1ccc(/C(=C(/Cl)c2ccccc2)c2ccccc2)cc1.O=C(O)CC(O)(CC(=O)O)C(=O)O` [Clomiphene citrate (Z,E)] registered a ThS net change of 409. `NC(=O)C(c1ccccc1)(c1ccccc1)[C@@H]1CCN(CCc2ccc3c(c2)CCO3)C1` [Darifenacin hydrobromide] showed a ThS net change of 384. In turn, `CCN[C@@H](C)Cc1cccc(C(F)(F)F)c1` [Dexfenfluramine hydrochloride] displayed a ThS net change of 397.

Regarding `CC(=O)Nc1c(I)c(NC(C)=O)c(I)c(C(=O)O)c1I.O.O` [Diatrizoic acid dihydrate], the ThS net change worked out at 407.

The test is the same for the next values; noted with them: flag: p-tau aggregation inhibitor, ThS net change more than 2 SD from mean.
For the molecule `CN(C)[C@@H]1C(O)=C(C(N)=O)C(=O)[C@@]2(O)C(O)=C3C(=O)c4c(O)ccc(Cl)c4[C@@H](O)[C@H]3C[C@@H]12` [Demeclocycline hydrochloride], the “PTAI>2SD” value is “*”.

Still in this test, the particulars now being: flag: p-tau aggregation inhibitor, ThS net change more than 3 SD from mean.
Regarding `NS(=O)(=O)c1cc2c(cc1Cl)NC(CC1CCCC1)NS2(=O)=O` (stereo not drawn) [Cyclopenthiazide], the “PTAI>3SD” value is listed as “*”.

Still in this test, the particulars now being: library screen, ThS fluorescence net change over 16 h with p-tau.
The molecule `CCCCCCC[N+](CC)(CC)CCCCc1ccc(Cl)cc1.Cc1ccc(S(=O)(=O)[O-])cc1` [Clofilium tosylate] registered a ThS net change of 326. The same measure, in the same setting: the same measure for `NS(=O)(=O)c1cc2c(cc1Cl)NC(CC1CCCC1)NS2(=O)=O` (stereo not drawn) [Cyclopenthiazide]: 0; for `O=C1CN(/N=C/c2ccc(-c3ccc([N+](=O)[O-])cc3)o2)C([O-])=N1.[Na+]` [Dantrolene sodium salt]: 286; for `CN(C)[C@@H]1C(O)=C(C(N)=O)C(=O)[C@@]2(O)C(O)=C3C(=O)c4c(O)ccc(Cl)c4[C@@H](O)[C@H]3C[C@@H]12` [Demeclocycline hydrochloride]: 117. On the same count and under the same terms, then `Cc1cc(N)c2ccccc2[n+]1CCCCCCCCCC[n+]1c(C)cc(N)c2ccccc21` [Dequalinium dichloride], with 297; and `CC(=O)Oc1cccc2c1C(=O)c1c(OC(C)=O)cc(C(=O)O)cc1C2=O` [Diacerein], with 239; and `CCCCOc1cc(C(=O)NCCN(CC)CC)c2ccccc2n1` [Dibucaine], with 296.

The same test, now with this note: p-tau aggregation modulator screen of 1280-compound library; ThS fluorescence net change.
In turn, `Oc1c(I)cc(Cl)c2cccnc12` [Clioquinol] showed a ThS net change of 336. As to `CC(CN(C)C)C(C)(O)Cc1ccc(Cl)cc1.Cl` (stereo not drawn) [Clobutinol hydrochloride], the ThS net change was determined as 336. Still for that read-out and setting: the same measure for `CC(C)(Oc1ccc(Cl)cc1)C(=O)O` [Clofibric acid]: 349; for `Clc1cccc(Cl)c1N=C1NCCN1` [Clonidine hydrochloride]: 330; for `C[C@@H]1CCC[C@H](C)N1NC(=O)c1ccc(Cl)c(S(N)(=O)=O)c1` [Clopamide]: 369.

As to `CN1CCN(C2=Nc3cc(Cl)ccc3Nc3ccccc32)CC1` [Clozapine], the ThS net change is given as 368. Still for that read-out and setting: the same measure for `CC(=O)OCC(=O)[C@@]1(O)CC[C@H]2[C@@H]3CCC4=CC(=O)CC[C@]4(C)[C@H]3[C@@H](O)C[C@@]21C` [Cortisol acetate]: 369. `O=C(O)c1cc(=O)c2c(OCC(O)COc3cccc4oc(C(=O)O)cc(=O)c34)cccc2o1` [Cromolyn disodium salt]: the ThS net change came to 360. The same measure, in the same setting: then `CN1CCN(C(c2ccccc2)c2ccccc2)CC1.Cl` [Cyclizine hydrochloride], with 377. As to `CN1CCC(=C2c3ccccc3C=Cc3ccccc32)CC1` [Cyproheptadine hydrochloride], the ThS net change came to 375.

In turn, `COc1ccccc1N1CCN(CCCCNC(=O)c2ccc3ccccc3c2)CC1.Cl.Cl` [DO 897/99] had a ThS net change of 374.

Take `N=C(N)N1CCc2ccccc2C1` [Debrisoquin sulfate]: the ThS net change stood at 360. On the same count and under the same terms, the same measure for `C[C@H](CCC(=O)O)[C@H]1CC[C@H]2[C@@H]3C(=O)C[C@@H]4CC(=O)CC[C@]4(C)[C@H]3CC(=O)[C@]12C` [Dehydrocholic acid]: 331. `CNCCCN1c2ccccc2CCc2ccccc21` [Desipramine hydrochloride] returned a ThS net change of 365. The molecule `CC(=O)OCC(=O)[C@@]1(O)[C@H](C)C[C@H]2[C@@H]3CCC4=CC(=O)C=C[C@]4(C)[C@@]3(F)[C@@H](O)C[C@@]21C` [Dexamethasone acetate] yielded a ThS net change of 343.

As for `CC1=NS(=O)(=O)c2cc(Cl)ccc2N1` [Diazoxide], the ThS net change amounted to 354. On the same count and under the same terms, then `CN(C)CCN1C(=O)c2ccccc2N(C)c2ccccc21.Cl` [Dibenzepine hydrochloride], with 368.

The same test, now with this note: p-tau aggregation modulator screen of 1280-compound library; […].
In the case of `O=P(O)(O)C(Cl)(Cl)P(=O)(O)O` [Clodronate], the ThS net change was found to be 370. The molecule `COc1cc2c(c(OC)c1OC)-c1ccc(OC)c(=O)cc1[C@@H](NC(C)=O)CC2` [Colchicine] came in with a ThS net change of 336. On the same count and under the same terms, then `CN(CCCCCCCCCCN(C)C(=O)Oc1cccc([N+](C)(C)C)c1)C(=O)Oc1cccc([N+](C)(C)C)c1` [Demecarium bromide], with 377.

Still in this test, the particulars now being: p-tau aggregation modulator screen of the compound library, ThS fluorescence net change.
On to `C[C@@H]1C[C@H]2[C@@H]3C[C@H](F)C4=CC(=O)C=C[C@]4(C)[C@@]3(Cl)[C@@H](O)C[C@]2(C)[C@H]1C(=O)COC(=O)C(C)(C)C` [Clocortolone pivalate], for which the ThS net change was determined as 414. Molecule `CCOC(=O)C(C)(C)Oc1ccc(Cl)cc1` [Clofibrate] gave a ThS net change of 461.

As to `COC(=O)[C@H](c1ccccc1Cl)N1CCc2sccc2C1` [Clopidogrel], the ThS net change is 499. On the same count and under the same terms, the same measure for `Cc1cc(C(C#N)c2ccc(Cl)cc2)c(Cl)cc1NC(=O)c1cc(I)cc(I)c1O` (stereo not drawn) [Closantel]: 423; for `C[C@]12C[C@H](O)[C@H]3[C@@H](CCC4=CC(=O)CC[C@@]43C)[C@@H]1CC[C@@H]2C(=O)CO` [Corticosterone]: 416; for `CN(C)CCC=C1c2ccccc2C=Cc2ccccc21` [Cyclobenzaprine hydrochloride]: 414. On the same count and under the same terms, then `CC(=O)O[C@]1(C(C)=O)CC[C@H]2[C@@H]3C=C(Cl)C4=CC(=O)[C@@H]5C[C@@H]5[C@]4(C)[C@H]3CC[C@@]21C` [Cyproterone acetate], with 432; and `C#C[C@]1(O)CC[C@H]2[C@@H]3CCC4=Cc5oncc5C[C@]4(C)[C@H]3CC[C@@]21C` [Danazol], with 495. Regarding `CC(=O)OCC(=O)[C@@]12N=C(C)O[C@@H]1C[C@H]1[C@@H]3CCC4=CC(=O)C=C[C@]4(C)[C@H]3[C@@H](O)C[C@@]12C` [Deflazacort], the ThS net change was 420. With `CN1[C@@H]2CC[C@H]1CC(OC1c3ccccc3CCc3ccccc31)C2.O=C(O)CC(O)(CC(=O)O)C(=O)O` (stereo partly drawn) [Deptropine citrate], the ThS net change was determined as 455. With `CC1(C)O[C@@H]2C[C@H]3[C@@H]4CCC5=CC(=O)C=C[C@]5(C)[C@H]4[C@@H](O)C[C@]3(C)[C@]2(C(=O)CO)O1` [Desonide], the ThS net change was 440.
